Key:
Type in all cases: biochemical
PKCγ = PKCγ (Homo sapiens, UniProt P05129); assay: Protein kinase assay ([γ-32P] ATP), PKCγ; conditions: read-out: Activity of the protein kinase when treated with compound I-1 (% control)
Procedure: (§1) In another set of experiments, the activities of the compounds described herein against various protein kinases were determined according to the methods reported in Hastie et al., Nature Protocols, 2006, 1, 968-971.
(§2) Enzyme dilution buffer. This buffer consisted of 50 mM Tris-HCl, pH 7.5, 0.1 mM EGTA, 1 mg ml^−1 bovine serum albumin and 0.1% (vol/vol) 2-mercaptoethanol.
(§3) 10× concentrated assay buffer. An assay buffer of 500 mM Tris-HCl, pH 7.5, 1 mM EGTA, and 100 mM magnesium acetate was used for assay of a wide variety of protein kinases. In some experiments, other cofactors were included (e.g., calcium ions and calmodulin were included for assay of calcium-calmodulindependent protein kinases).
(§4) 1 mM [γ-^32P] ATP. The specific activity of the [γ-^32P] ATP solution was 1×10^5 to 1×10^6 c.p.m. per nmol depending on what was needed to produce an optimal signal/noise ratio. […] To measure the concentration of ATP, a sample of such a stock solution was diluted to 20 μM, and the absorbance of the diluted sample was measured at 259 nm. The absorbance of a 20-μM stock solution of ATP at 259 nm was about 0.31. […] ATP to produce a radioactivity of 1×10^5 to 1×10^6 c.p.m. per nmol. […]
(§5) 13) Measure radioactivity in the samples by Cerenkov counting (e.g., without liquid scintillation fluid) in a liquid scintillation counter using a “^32P program”. […]

GSK3b = GSK3b (Homo sapiens, UniProt P49841); assay: Protein kinase assay ([γ-32P] ATP), GSK3b; conditions: read-out: Activity of the protein kinase when treated with compound I-1 (% control)
Procedure: as §1, §2, §3, §4, §5

MKK6 = MKK6 (Homo sapiens, UniProt P52564); assay: Protein kinase assay ([γ-32P] ATP), MKK6; conditions: read-out: Activity of the protein kinase when treated with compound I-1 (% control)
Procedure: as §1, §2, §3, §4, §5

LKB1 = LKB1 (Homo sapiens, UniProt Q15831); assay: Protein kinase assay ([γ-32P] ATP), LKB1; conditions: read-out: Activity of the protein kinase when treated with compound I-1 (% control)
Procedure: as §1, §2, §3, §4, §5

MST4 = MST4 (Homo sapiens, UniProt Q9P289); assay: Protein kinase assay ([γ-32P] ATP), MST4; conditions: read-out: Activity of the protein kinase when treated with compound I-1 (% control)
Procedure: as §1, §2, §3, §4, §5

RIPK2 = RIPK2 (Homo sapiens, UniProt O43353); assay: Protein kinase assay ([γ-32P] ATP), RIPK2; conditions: read-out: Activity of the protein kinase when treated with compound I-1 (% control)
Procedure: as §1, §2, §3, §4, §5

BRSK2 = BRSK2 (Homo sapiens, UniProt Q8IWQ3); assay: Protein kinase assay ([γ-32P] ATP), BRSK2; conditions: read-out: Activity of the protein kinase when treated with compound I-1 (% control)
Procedure: as §1, §2, §3, §4, §5

TTK = TTK (Homo sapiens, UniProt P33981); assay: Protein kinase assay ([γ-32P] ATP), TTK; conditions: read-out: Activity of the protein kinase when treated with compound I-1 (% control)
Procedure: as §1, §2, §3, §4, §5

PAK2 = PAK2 (Homo sapiens, UniProt Q13177); assay: Protein kinase assay ([γ-32P] ATP), PAK2; conditions: read-out: Activity of the protein kinase when treated with compound I-1 (% control)
Procedure: as §1, §2, §3, §4, §5

p38g MAPK = p38g MAPK (Homo sapiens, UniProt P53778); assay: Protein kinase assay ([γ-32P] ATP), p38g MAPK; conditions: read-out: Activity of the protein kinase when treated with compound I-1 (% control)
Procedure: as §1, §2, §3, §4, §5

CLK2 = CLK2 (Homo sapiens, UniProt P49760); assay: Protein kinase assay ([γ-32P] ATP), CLK2; conditions: read-out: Activity of the protein kinase when treated with compound I-1 (% control)
Procedure: as §1, §2, §3, §4, §5

PDK1 = PDK1 (Homo sapiens, UniProt O15530); assay: Protein kinase assay ([γ-32P] ATP), PDK1; conditions: read-out: Activity of the protein kinase when treated with compound I-1 (% control)
Procedure: as §1, §2, §3, §4, §5

SRPK1 = SRPK1 (Homo sapiens, UniProt Q96SB4); assay: Protein kinase assay ([γ-32P] ATP), SRPK1; conditions: read-out: Activity of the protein kinase when treated with compound I-1 (% control)
Procedure: as §1, §2, §3, §4, §5

TIE2 = TIE2 (Homo sapiens, UniProt Q02763); assay: Protein kinase assay ([γ-32P] ATP), TIE2; conditions: read-out: Activity of the protein kinase when treated with compound I-1 (% control)
Procedure: as §1, §2, §3, §4, §5

PHK = assay: Protein kinase assay ([γ-32P] ATP), PHK
Procedure: as §1, §2, §3, §4, §5

EPH-B4 = EPH-B4 (Homo sapiens, UniProt P54760); assay: Protein kinase assay ([γ-32P] ATP), EPH-B4; conditions: read-out: Activity of the protein kinase when treated with compound I-1 (% control)
Procedure: as §1, §2, §3, §4, §5

NEK2a = NEK2a (Homo sapiens, UniProt P51955); assay: Protein kinase assay ([γ-32P] ATP), NEK2a; conditions: read-out: Activity of the protein kinase when treated with compound I-1 (% control)
Procedure: as §1, §2, §3, §4, §5

[1] = 0.1 μM of compound I-1, DMSO control = 100%
[2] = 1 μM of compound I-1, DMSO control = 100%

Chain of PAK2 (Q13177 whole entry): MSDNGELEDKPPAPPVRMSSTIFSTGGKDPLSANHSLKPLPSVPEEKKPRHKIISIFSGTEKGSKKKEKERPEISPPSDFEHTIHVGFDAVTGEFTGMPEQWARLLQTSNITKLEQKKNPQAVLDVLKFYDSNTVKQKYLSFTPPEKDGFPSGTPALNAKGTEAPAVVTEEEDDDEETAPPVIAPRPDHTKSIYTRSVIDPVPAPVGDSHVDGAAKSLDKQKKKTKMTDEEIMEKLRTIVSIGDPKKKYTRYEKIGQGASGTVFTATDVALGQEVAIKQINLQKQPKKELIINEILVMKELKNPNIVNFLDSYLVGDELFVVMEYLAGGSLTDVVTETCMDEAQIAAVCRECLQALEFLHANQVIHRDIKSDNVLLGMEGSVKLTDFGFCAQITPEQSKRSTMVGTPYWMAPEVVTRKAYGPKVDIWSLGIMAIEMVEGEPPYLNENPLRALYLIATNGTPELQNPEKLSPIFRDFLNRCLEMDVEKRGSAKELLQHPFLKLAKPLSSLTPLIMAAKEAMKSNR
Chain of BRSK2 (Q8IWQ3 whole entry): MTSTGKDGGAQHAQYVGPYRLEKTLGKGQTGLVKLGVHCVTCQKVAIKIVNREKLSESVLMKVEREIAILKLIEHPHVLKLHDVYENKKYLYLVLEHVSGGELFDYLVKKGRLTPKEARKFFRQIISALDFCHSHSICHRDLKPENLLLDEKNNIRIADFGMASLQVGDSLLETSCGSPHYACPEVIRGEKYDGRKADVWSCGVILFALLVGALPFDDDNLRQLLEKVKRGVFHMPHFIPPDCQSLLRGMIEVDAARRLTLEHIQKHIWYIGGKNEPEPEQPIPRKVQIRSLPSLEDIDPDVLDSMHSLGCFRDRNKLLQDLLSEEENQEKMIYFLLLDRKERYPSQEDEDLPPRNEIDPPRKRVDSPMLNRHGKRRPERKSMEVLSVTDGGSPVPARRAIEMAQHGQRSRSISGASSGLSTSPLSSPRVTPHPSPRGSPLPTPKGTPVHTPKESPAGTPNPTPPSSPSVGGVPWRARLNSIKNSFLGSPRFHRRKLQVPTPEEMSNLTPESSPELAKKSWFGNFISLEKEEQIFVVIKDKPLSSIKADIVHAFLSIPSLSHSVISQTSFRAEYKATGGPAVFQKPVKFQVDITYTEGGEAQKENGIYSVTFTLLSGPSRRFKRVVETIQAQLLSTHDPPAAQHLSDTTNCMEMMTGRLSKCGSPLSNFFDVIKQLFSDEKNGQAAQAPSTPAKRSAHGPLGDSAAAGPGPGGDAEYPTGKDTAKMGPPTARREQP
Chain of GSK3b (P49841 whole entry): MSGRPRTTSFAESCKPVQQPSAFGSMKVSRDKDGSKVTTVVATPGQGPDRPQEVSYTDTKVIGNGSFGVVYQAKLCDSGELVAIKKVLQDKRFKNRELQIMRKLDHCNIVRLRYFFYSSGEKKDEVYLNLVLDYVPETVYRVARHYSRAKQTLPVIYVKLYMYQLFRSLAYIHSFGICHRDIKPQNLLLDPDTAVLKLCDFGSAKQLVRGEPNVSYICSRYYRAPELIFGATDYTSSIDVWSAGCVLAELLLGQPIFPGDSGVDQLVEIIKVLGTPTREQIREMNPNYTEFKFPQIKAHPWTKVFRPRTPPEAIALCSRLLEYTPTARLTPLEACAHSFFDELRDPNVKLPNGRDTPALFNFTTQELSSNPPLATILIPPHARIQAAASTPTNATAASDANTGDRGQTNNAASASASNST
Chain of CLK2 (P49760 whole entry): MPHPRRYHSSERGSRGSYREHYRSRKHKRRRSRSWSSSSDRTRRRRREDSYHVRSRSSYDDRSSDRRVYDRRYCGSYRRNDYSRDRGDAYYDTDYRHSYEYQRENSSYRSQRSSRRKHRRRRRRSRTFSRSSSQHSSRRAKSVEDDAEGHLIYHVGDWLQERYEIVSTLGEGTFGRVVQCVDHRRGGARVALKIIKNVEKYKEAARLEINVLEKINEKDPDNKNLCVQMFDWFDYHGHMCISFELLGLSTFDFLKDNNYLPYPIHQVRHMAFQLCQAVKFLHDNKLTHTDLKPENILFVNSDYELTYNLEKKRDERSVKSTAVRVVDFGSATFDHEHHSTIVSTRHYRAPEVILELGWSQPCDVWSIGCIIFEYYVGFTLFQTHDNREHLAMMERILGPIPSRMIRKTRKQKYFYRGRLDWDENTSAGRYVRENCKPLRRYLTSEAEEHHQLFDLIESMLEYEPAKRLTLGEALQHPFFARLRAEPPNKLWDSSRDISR
Chain of NEK2a (P51955 whole entry): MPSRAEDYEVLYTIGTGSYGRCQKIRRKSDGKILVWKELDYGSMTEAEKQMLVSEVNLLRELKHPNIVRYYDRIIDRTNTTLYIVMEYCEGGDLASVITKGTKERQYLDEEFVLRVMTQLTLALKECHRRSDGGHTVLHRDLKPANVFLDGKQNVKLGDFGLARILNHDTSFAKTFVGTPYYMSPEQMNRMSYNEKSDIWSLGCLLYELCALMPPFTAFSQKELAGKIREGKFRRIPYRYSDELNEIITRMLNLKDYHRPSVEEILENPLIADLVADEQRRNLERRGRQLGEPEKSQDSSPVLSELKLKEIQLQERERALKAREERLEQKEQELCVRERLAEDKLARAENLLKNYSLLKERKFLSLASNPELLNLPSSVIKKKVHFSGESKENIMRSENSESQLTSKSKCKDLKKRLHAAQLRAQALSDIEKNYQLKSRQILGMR
Chain of RIPK2 (O43353 whole entry, species assumed): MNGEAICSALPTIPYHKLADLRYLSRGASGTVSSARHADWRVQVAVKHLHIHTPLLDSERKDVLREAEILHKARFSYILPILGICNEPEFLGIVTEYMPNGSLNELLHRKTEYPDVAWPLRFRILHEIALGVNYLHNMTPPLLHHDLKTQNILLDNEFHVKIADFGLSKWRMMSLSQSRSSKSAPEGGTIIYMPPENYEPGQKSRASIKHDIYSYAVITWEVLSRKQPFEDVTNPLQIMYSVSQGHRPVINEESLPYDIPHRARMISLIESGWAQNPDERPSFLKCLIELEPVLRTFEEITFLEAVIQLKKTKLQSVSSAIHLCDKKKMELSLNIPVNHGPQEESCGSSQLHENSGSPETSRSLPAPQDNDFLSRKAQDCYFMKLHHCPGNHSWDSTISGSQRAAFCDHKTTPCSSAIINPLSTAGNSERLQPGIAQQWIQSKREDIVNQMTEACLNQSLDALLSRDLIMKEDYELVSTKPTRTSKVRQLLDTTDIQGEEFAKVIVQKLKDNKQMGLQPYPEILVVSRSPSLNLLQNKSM
Chain of EPH-B4 (P54760 16-987): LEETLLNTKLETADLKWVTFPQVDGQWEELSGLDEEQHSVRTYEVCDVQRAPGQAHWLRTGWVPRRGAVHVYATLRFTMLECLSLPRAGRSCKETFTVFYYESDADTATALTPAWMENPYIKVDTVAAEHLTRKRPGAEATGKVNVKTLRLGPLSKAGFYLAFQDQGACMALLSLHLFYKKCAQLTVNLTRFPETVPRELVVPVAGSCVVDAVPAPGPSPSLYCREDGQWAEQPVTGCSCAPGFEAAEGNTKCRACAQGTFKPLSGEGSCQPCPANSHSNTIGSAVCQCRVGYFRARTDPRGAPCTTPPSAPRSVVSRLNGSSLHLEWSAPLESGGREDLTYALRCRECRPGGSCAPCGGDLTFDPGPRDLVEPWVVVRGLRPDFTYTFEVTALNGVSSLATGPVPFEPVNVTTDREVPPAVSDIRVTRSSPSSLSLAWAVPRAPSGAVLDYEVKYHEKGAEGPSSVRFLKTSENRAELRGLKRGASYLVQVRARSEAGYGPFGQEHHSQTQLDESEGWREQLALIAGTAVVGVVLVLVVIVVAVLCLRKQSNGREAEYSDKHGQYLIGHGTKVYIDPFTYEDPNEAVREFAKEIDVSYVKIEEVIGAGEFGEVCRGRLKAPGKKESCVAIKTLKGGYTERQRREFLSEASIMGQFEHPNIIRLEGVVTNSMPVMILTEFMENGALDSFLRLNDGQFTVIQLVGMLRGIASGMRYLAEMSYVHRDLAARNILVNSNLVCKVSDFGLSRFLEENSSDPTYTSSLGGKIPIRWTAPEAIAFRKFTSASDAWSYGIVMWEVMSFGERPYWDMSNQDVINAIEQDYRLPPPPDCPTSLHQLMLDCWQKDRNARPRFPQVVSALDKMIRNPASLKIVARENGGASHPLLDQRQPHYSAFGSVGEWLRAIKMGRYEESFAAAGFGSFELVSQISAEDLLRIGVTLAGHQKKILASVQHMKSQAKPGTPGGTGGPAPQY
Chain of TTK (P33981 whole entry, species assumed): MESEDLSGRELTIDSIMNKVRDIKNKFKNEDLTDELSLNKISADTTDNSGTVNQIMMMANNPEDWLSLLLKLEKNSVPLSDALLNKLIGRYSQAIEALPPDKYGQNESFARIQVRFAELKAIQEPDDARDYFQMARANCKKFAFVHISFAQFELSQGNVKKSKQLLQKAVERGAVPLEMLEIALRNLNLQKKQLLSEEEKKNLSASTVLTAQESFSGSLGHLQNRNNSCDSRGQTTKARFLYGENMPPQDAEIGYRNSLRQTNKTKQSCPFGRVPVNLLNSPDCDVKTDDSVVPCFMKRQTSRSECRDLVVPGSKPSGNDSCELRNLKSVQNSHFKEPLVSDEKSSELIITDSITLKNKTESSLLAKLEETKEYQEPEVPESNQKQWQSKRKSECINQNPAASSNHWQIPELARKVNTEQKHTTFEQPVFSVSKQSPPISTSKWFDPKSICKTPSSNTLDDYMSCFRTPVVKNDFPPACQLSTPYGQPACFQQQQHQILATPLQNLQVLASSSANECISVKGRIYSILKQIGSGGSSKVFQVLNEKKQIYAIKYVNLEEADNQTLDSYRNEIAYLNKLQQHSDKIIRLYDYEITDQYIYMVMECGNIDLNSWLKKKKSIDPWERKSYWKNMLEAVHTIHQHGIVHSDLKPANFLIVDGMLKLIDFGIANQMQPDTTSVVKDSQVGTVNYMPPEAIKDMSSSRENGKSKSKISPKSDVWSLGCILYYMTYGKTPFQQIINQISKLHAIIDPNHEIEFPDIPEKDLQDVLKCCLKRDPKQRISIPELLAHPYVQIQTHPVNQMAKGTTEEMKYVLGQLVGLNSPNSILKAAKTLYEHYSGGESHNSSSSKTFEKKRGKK

`Cc1cccc(C)c1NC(=O)N1C/C=C\COc2cccc(c2)Nc2cc1ncn2` [Compound I-1] was tested, and the remaining activity at 0.1 µM (PKCγ; [1]) was 98%, the remaining activity at 1 µM (PKCγ; [2]) was 92% and the remaining activity at 0.1 µM (GSK3b; [1]) was 101%. It also gave a remaining activity at 1 µM (GSK3b; [2]) of 75%, a remaining activity at 0.1 µM (MKK6; [1]) of 101% and a remaining activity at 1 µM (MKK6; [2]) of 93%. It also gave a remaining activity at 0.1 µM (LKB1; [1]) of 99%, a remaining activity at 1 µM (LKB1; [2]) of 65% and a remaining activity at 0.1 µM (MST4; [1]) of 133%. The remaining activity at 1 µM (MST4; [2]) was 81%, the remaining activity at 0.1 µM (RIPK2; [1]) was 33% and the remaining activity at 1 µM (RIPK2; [2]) was 5%. It also gave a remaining activity at 0.1 µM (BRSK2; [1]) of 110%, a remaining activity at 1 µM (BRSK2; [2]) of 78% and a remaining activity at 0.1 µM (TTK; [1]) of 99%. For the same molecule, the remaining activity at 1 µM (TTK; [2]) was 79%, the remaining activity at 0.1 µM (PAK2; [1]) was 100% and the remaining activity at 1 µM (PAK2; [2]) was 77%. For the same molecule, the remaining activity at 0.1 µM (p38g MAPK; [1]) was 101%, the remaining activity at 1 µM (p38g MAPK; [2]) was 88% and the remaining activity at 0.1 µM (CLK2; [1]) was 100%. For the same molecule, the remaining activity at 1 µM (CLK2; [2]) was 90%, the remaining activity at 0.1 µM (PDK1; [1]) was 103% and the remaining activity at 1 µM (PDK1; [2]) was 87%. For the same molecule, the remaining activity at 0.1 µM (SRPK1; [1]) was 100%, the remaining activity at 1 µM (SRPK1; [2]) was 74% and the remaining activity at 0.1 µM (TIE2; [1]) was 52%. For the same molecule, the remaining activity at 1 µM (TIE2; [2]) was 10%, the “Activity of the protein kinase when treated with compound I-1 (% control)” value (PHK; [1]) was 88 % control and the “Activity of the protein kinase when treated with compound I-1 (% control)” value (PHK; [2]) was 100 % control. It also gave a remaining activity at 0.1 µM (EPH-B4; [1]) of 55%, a remaining activity at 1 µM (EPH-B4; [2]) of 4% and a remaining activity at 0.1 µM (NEK2a; [1]) of 97%. The remaining activity at 1 µM (NEK2a; [2]) was 85%.

Source: patent publication US10457691B2, “Macrocyclic kinase inhibitors and uses thereof” (Dana-Farber Cancer Institute, Inc., priority 2014, dated 2019)
